Results as given in patent US11638424B2, “Mosquito attractant formulations and uses thereof” (priority 2017, dated 2023).

Legend:
[1] = test system: Plasmodium falciparum (NF54 strain); experiment: Mosquito infectious feed (P. falciparum oocyst and sporozoite infection in mosquitoes); format: in vivo
Experimental: A strain of the human malaria parasite P. falciparum, denoted NF54 (T. Ponnudurai, et al., Trop Geogr Med, 33, 50-54 (1981); kindly donated by Klays Berzins, Stockholm University), known to produce gametocytes infectious to mosquitoes (D. Walliker, paper presented at the Symposia on Molecular and Cellular Biology New Series 42, UCLA (1987)), was used for all experimental infections. Parasites were cultured in vitro according to standard protocols (W. Trager and J. B. Jensen, Science, 193, 673-675 (1976)) at 5% haematocrit in complete RPMI-1640 medium with 10% human serum under a gas environment of 1% O2, 3% CO2 and 96% N2 (Labline, Goteborg, Sweden). The culture medium was replaced daily and parasitaemia assessed using Giemsa staining every two days (ibid.). When the parasitaemia reached ˜6% (approximately 2 days after initiating the culture), cultures were diluted with a freshly made 5% haematocrit mixture of RBCs/complete medium. Asexual, synchronised trophozoites were fed to mosquitoes at 5% parasitaemia.
Plasmodium falciparum gametocyte cultures (NF54 strain) were set up at 0.5-0.7% parasitaemia, 6% haematocrit in complete RPMI medium, according to standard procedures (R. Carter, et al. Methods Mol Biol, 21, 67-88 (1993)). For each infectious feeding, a mixture of gametocytes from 14- and 17-day gametocyte cultures were used (ibid.). On the day of experimental infection, uninfected RBCs were supplemented with P. falciparum gametocytes to a final gametocytaemia of approximately 3%, which is known to generate good infection prevalence (>50% in A. gambiae s.s. mosquitoes; ibid.). To measure the effect of HMBPP on parasite infectiousness, two groups of approximately 210 mosquitoes were fed on mature gametocyte-infected red blood cells (giRBCs) with or without HMBPP using a membrane feeder, as previously described (ibid.). Gametocyte density was kept equal in control and treatments. To give the final gametocytaemia of 3% in each tubes, on the day of feed, the final mature gametocytaemia was calculated in cultures and then the volume of gametocyte inoculum was estimated per 1 ml of blood. The gametocyte inoculum was prepared using an equal volume (˜400 μl) of the gametocyte mixture was added to 1 ml of each of the blood treatments (with/without HMBPP). Adding a fixed volume of well-mixed gametocyte culture to a fixed volume of each blood treatment, it was ensured that parasite density (no. gametocytes per ml) was constant in both groups.

A. gambiae s.l. = details: in vivo; cited from earlier work

For `C/C(=C\COP(=O)(O)OP(=O)(O)O)CO` [HMBPP, (E)-4-hydroxy-3-methyl-but-2-enyl pyrophosphate], the “oocyst prevalence (proportion of oocyst-carrying mosquitoes)” value ([1]; giRBCs with additional HMBPP, gametocyte density 3%) was ~100%, the “sporozoite intensity (number of sporozoites per salivary gland)” value ([1]; giRBCs with vs without HMBPP) was “significantly higher” and the “oocyst intensity (number of oocyst per midgut)” value ([1]; giRBCs with vs without HMBPP, 10 dpi, FIG. 3D) was “higher”. The “sporozoite prevalence (proportion of sporozoite-carrying mosquitoes)” value ([1]; giRBCs with vs without HMBPP, 14 dpi, FIG. 3E) was “significantly higher”, the “oocyst prevalence, difference between treatments” value ([1]; giRBCs with vs without additional HMBPP) was “not significantly different” and the “innate immune responses in A. gambiae s.l.” value (A. gambiae s.l.) was “trigger innate immune responses”.
